Data on 18 compounds can be found in PubChem BioAssay AID330 (DTP/NCI, 2004).

The assay deals with P388 leukemia ip, CD2F1 mice, survival T/C. In words: NCI In Vivo Anticancer Drug Screen. Data for tumor model P388 Leukemia (intraperitoneal) in CD2F1 (CDF1) mice. The settings on record: endpoint: median survival time, higher = longer survival. Put shortly: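 Mice carrying the transplanted tumor received test compound or vehicle. Survival was recorded in each group, and the value is the treated-group measurement divided by that of the vehicle-treated control group.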

Where [1] appears, read: dose: 50.0 mg/kg/injection, schedule: Q01DX005 (ip), vehicle: Klucel (hydroxypropylcellulose) (HPC).
[2] abbreviates: dose: 100.0 mg/kg/injection, schedule: Q01DX005 (ip), vehicle: Klucel (hydroxypropylcellulose) (HPC).
The mark [3] stands for this setting: dose: 60.0 mg/kg/injection, schedule: Q01DX005 (ip), vehicle: Klucel (hydroxypropylcellulose) (HPC).
Setting [4] is: dose: 120.0 mg/kg/injection, schedule: Q01DX005 (ip), vehicle: Klucel (hydroxypropylcellulose) (HPC).
[5] abbreviates: dose: 240.0 mg/kg/injection, schedule: Q01DX005 (ip), vehicle: Klucel (hydroxypropylcellulose) (HPC).
Where [6] appears, read: dose: 60.0 mg/kg/injection, schedule: Q01DX005 (ip), vehicle: saline with Tween-80.
Where [7] appears, read: dose: 120.0 mg/kg/injection, schedule: Q01DX005 (ip), vehicle: saline with Tween-80.

“And” between values parts separate entries of the source, which are not always exact repeats. Identical values can stand only once. Inconclusive results and toxic doses are left out.

Take `O=C(N/N=C/c1ccccc1[O-])c1ccccc1O.O=C(N/N=C/c1ccccc1[O-])c1ccccc1O.[Mn+2]`: the T/C was 100 % of control under setting [1]; 103 % of control under setting [2]; 103 % of control (dose: 200.0 mg/kg/injection, schedule: Q01DX005 (ip), vehicle: Klucel (hydroxypropylcellulose) (HPC)).

For `O=C1N=NC2=C1c1c3ccccc3c(O)n1CC2`, the T/C was 99 % of control (dose: 25.0 mg/kg/injection, schedule: Q01DX005 (ip), vehicle: saline with Tween-80); 101 % of control (dose: 50.0 mg/kg/injection, schedule: Q01DX005 (ip), vehicle: saline with Tween-80); 95 % of control (dose: 100.0 mg/kg/injection, schedule: Q01DX005 (ip), vehicle: saline with Tween-80).

`CC[C@]12C=CCN3CC[C@@]4(c5ccc(OC)cc5N(C)[C@H]4[C@@](O)(C(=O)OC)[C@@H]1OC(C)=O)[C@@H]32`: the T/C was 98 % of control under setting [1] and 97 % of control under setting [2].

On to `CC1=C2C(=O)[C@H]3[C@@H](CC=C4C[C@@H](O)CC[C@@]43C)[C@@H]2CC[C@]12O[C@@H]1C[C@H](C)CN[C@H]1[C@H]2C`, for which the T/C by setting is: (dose: 25.0 mg/kg/injection, schedule: Q01DX009 (ip), vehicle: saline with Tween-80) 98 % of control; (dose: 50.0 mg/kg/injection, schedule: Q01DX009 (ip), vehicle: saline with Tween-80) 92 % of control; (dose: 100.0 mg/kg/injection, schedule: Q01DX009 (ip), vehicle: saline with Tween-80) 92 % of control.

With `O=C1OCCOCCSCCOCCOC(=O)c2cncc1c2`, the T/C is 104 % of control (dose: 100.0 mg/kg/injection, schedule: Q01DX001 (ip), vehicle: Klucel (hydroxypropylcellulose) (HPC)); 104 % of control (dose: 200.0 mg/kg/injection, schedule: Q01DX001 (ip), vehicle: Klucel (hydroxypropylcellulose) (HPC)); 101 % of control (dose: 400.0 mg/kg/injection, schedule: Q01DX001 (ip), vehicle: Klucel (hydroxypropylcellulose) (HPC)).

Consider `O=C(O)C(O)(c1ccccc1Cl)c1ccccc1Cl`, for which the T/C is 105 % of control (dose: 100.0 mg/kg/injection, schedule: Q04DX003 (ip), vehicle: saline with Tween-80); 110 % of control (dose: 200.0 mg/kg/injection, schedule: Q04DX003 (ip), vehicle: saline with Tween-80); 109 % of control (dose: 400.0 mg/kg/injection, schedule: Q04DX003 (ip), vehicle: saline with Tween-80).

As to `CN1N(C)P(=S)(Oc2ccccc2)N(C)N(C)P1(=S)Oc1ccccc1` (stereo not given), the T/C reads like this: under setting [3], 98 % of control; under setting [4], 98 % of control; under setting [5], 93 % of control.

Turning to `CCN(CC)Cc1c(C)[nH]c2cc3c(cc2c1=O)CCCC3`, the T/C reads like this: under setting [3], 98 % of control; under setting [4], 90 % of control.

Take `CCc1cc(COC(C)=O)on1`: the T/C (dose: 50.0 mg/kg/injection, schedule: Q01DX009 (ip), vehicle: Klucel (hydroxypropylcellulose) (HPC)) was 105 % of control; the T/C (dose: 100.0 mg/kg/injection, schedule: Q01DX009 (ip), vehicle: Klucel (hydroxypropylcellulose) (HPC)) is 109 % of control; the T/C (dose: 200.0 mg/kg/injection, schedule: Q01DX009 (ip), vehicle: Klucel (hydroxypropylcellulose) (HPC)) was 109 % of control.

On to `COc1ccc(NC(=O)Oc2ccc3c(C)cc(=O)oc3c2)c(OC)c1` (tested in a mixture with another compound), for which the T/C is, setting by setting: under setting [6], 106 % of control and 117 % of control; under setting [7], 120 % of control and 121 % of control.

For the compound `CSc1c2c(c(C)c3c1[nH]c1ccccc13)C=NCC2`, the T/C is 102 % of control (dose: 6.25 mg/kg/injection, schedule: Q04DX002 (ip), vehicle: distilled water + Tween-80); 89 % of control (dose: 12.5 mg/kg/injection, schedule: Q04DX002 (ip), vehicle: distilled water + Tween-80); 98 % of control (dose: 25.0 mg/kg/injection, schedule: Q04DX002 (ip), vehicle: distilled water + Tween-80); 88 % of control (dose: 50.0 mg/kg/injection, schedule: Q04DX002 (ip), vehicle: distilled water + Tween-80); 88 % of control (dose: 100.0 mg/kg/injection, schedule: Q04DX002 (ip), vehicle: distilled water + Tween-80).

`Cn1c2ccccc2c2nnc(N/N=C/c3ccccn3)nc21`: the T/C was 98 % of control and 111 % of control and 113 % of control (dose: 100.0 mg/kg/injection, schedule: Q04DX002 (ip), vehicle: saline with Tween-80); 106 % of control and 113 % of control and 114 % of control (dose: 200.0 mg/kg/injection, schedule: Q04DX002 (ip), vehicle: saline with Tween-80); 106 % of control and 113 % of control (dose: 400.0 mg/kg/injection, schedule: Q04DX002 (ip), vehicle: saline with Tween-80); 104 % of control and 114 % of control (dose: 800.0 mg/kg/injection, schedule: Q04DX002 (ip), vehicle: saline with Tween-80).

Take `NNC(=O)CNc1cc(Cl)cc(Cl)c1`: the T/C under setting [6] is 113 % of control; the T/C under setting [7] was 97 % of control; the T/C (dose: 240.0 mg/kg/injection, schedule: Q01DX005 (ip), vehicle: saline with Tween-80) was 100 % of control.

With `CC1OC(c2c(Cl)cccc2[N+](=O)[O-])OC1C` (stereo not given), the T/C was 99 % of control under setting [3], 91 % of control under setting [4] and 92 % of control under setting [5].

With `O=C1C(NCC(O)CO)=C(N2CC2)C(=O)C(NCC(O)CO)=C1N1CC1` (stereo not given), the T/C (dose: 1.5 mg/kg/injection, schedule: Q01DX009 (ip), vehicle: saline) is 198 % of control; the T/C (dose: 3.0 mg/kg/injection, schedule: Q01DX009 (ip), vehicle: saline) is 227 % of control; the T/C (dose: 4.0 mg/kg/injection, schedule: Q01DX009 (ip), vehicle: saline) was 270 % of control.

Consider `C[n+]1c(-c2cccc(-c3ccccc3)c2)c2cc(N)ccc2c2ccccc21`, for which the T/C (dose: 1.56 mg/kg/injection, schedule: Q01DX009 (ip), vehicle: other) was 124 % of control.

As to `O=C(O)COc1ccc(I)cc1I`, the T/C reads like this: (dose: 100.0 mg/kg/injection, schedule: Q04DX003 (ip), vehicle: Klucel (hydroxypropylcellulose) (HPC)) 110 % of control; (dose: 200.0 mg/kg/injection, schedule: Q04DX003 (ip), vehicle: Klucel (hydroxypropylcellulose) (HPC)) 91 % of control.

`COc1ccc(Br)cc1-c1cc2cccc[n+]2o1`: the T/C runs as follows: (dose: 12.5 mg/kg/injection, schedule: Q01DX009 (ip), vehicle: saline) 101 % of control; (dose: 25.0 mg/kg/injection, schedule: Q01DX009 (ip), vehicle: saline) 109 % of control.
